From US20250205191A1, “R(-)-MDMA COMPOSITIONS AND METHODS OF TREATMENT” (EmpathBio, Inc., priority 2023, published 2025)

Columns and labels:
human 5-HT2A receptor = biological target: T1, human 5-HT2A receptor (Homo sapiens, UniProt P28223); assay: 5-HT2A agonism, inositol monophosphate accumulation (HTRF), CHO-K1 recombinant cells; assay type: cell-based
T1 construct: expressed in transfected cells; host or cells: CHO-K1

healthy volunteers [1] = assay: Phase 1 Multifaceted Empathy Test (MET); assay type: in vivo, human; conditions: 75-225 mg
Excerpt: The Multifaceted Empathy Test (MET) measures cognitive empathy (CE), explicit emotional empathy (EEE) and implicit emotional empathy (IEE).

healthy volunteers [2] = assay: 11-Dimensions-Altered States of Consciousness (11D-ASC); assay type: in vivo, human
[3] = test system: rat embryonic cortical neurons; assay: In vitro rat cortical neurite outgrowth; assay type: cell-based; conditions: 3 days, vs vehicle control
Procedure: The experiment included a 0.1% sterile water vehicle negative control condition and a 250 nM donepezil positive control condition, and the number of neurites per neuron, total neurite length per neuron and branchpoints per neuron from n=12 wells per treatment were compared to the vehicle control condition.

healthy volunteers [4] = assay: Phase 1 5-Dimensions-Altered States of Consciousness (5D-ASC); assay type: in vivo, human; conditions: 75-225 mg oral
Excerpt: The 5D-ASC measures the acute drug effects using 5 primary dimensions and 11 lower-order scales to assess alterations in mood, perception and experience of self in relation to environment and thought disorder. The 5 dimensions include oceanic boundlessness, anxious ego dissolution, visionary restructuralization, auditory alterations, and reduction of vigilance.
A notable result illustrated by the ASC data was the reporting ratio of feelings of Oceanic Boundlessness (OB) relative to Dread of Ego Dissolution (DED). The ratio can be a useful metric as they are inversely correlated with psychedelic-mediated antidepressant efficacy (OB positively correlated, DED negatively correlated). […] The OB-DED ratio was consistent with the 11-Dimensional Altered States of Consciousness (11D-ASC).

healthy volunteers [5] = assay: Phase 1 Emotional Breakthrough Inventory (EBI); assay type: in vivo, human
Excerpt: Self-reported Emotional Breakthrough Inventory (EBI) include facing emotionally difficult feelings that are usually pushed aside; experiencing resolution of a personal conflict or trauma; ability to explore challenging emotions and memories; having an emotional breakthrough; achieving a sense of closure on an emotional problem; and achieving emotional release followed by sense of relief. Emotional breakthrough is an important and distinct component of the acute psychedelic experience that appears to be a key mediator (state predictor) of subsequent longer-term psychological changes in psychiatric populations. (Carhartt-Harris, et al., Trial of Psilocybin versus Escitalopram for Depression, N Engl J Med 2021; 384:1402-1411).

[6] = Phase 1 clinical study, plasma pharmacokinetics; conditions: for AUC0-t / Cmax / t1/2: mean (SD); for Tmax: median (minimum, maximum)
healthy volunteers [7] = assay: Phase 1 Spoken Intensity Rating Scale (SIRS); assay type: in vivo, human
Procedure: Beyond 8 hours postdose, mean SIRS scores remained ≤0.5 in all cohorts.

healthy volunteers [8] = assay: Phase 1 exploratory Visual Analog Scale (VAS); assay type: in vivo, human; conditions: vs placebo; dose-dependent pattern
Excerpt: VAS measure changes in subjective experience that are typical in healthy human volunteer studies. These include experiences such as Happy, Open, Loving, Close to Others, Sociable, and Lonely.

healthy volunteers [9] = assay: Facial Emotion Recognition Test (FERT); assay type: in vivo, human
healthy volunteers [10] = assay: Phase 1 Self-Compassion Scale (SCS); assay type: in vivo, human
Excerpt: Self-compassion is defined as being open to and moved by one's own suffering, experiencing feelings of caring and kindness toward oneself, taking an understanding, non-judgmental attitude toward one's inadequacies and failures, and recognizing that one's own experience is part of the common human experience (Neff, K. D., 2003. The development and validation of a scale to measure self-compassion. Self and Identity, 2, 223-250). The Self-Compassion Scale is an assessment tool designed to measure three core components of self-compassion: self-kindness, common humanity and mindfulness. (SCS; Neff, K. D., 2011. Self-compassion: Stop beating yourself up and leave insecurity behind. New York, NY: Harper Collins) The total self-compassion score is the total of the scores of the sub-items: self-kindness, self-judgement (reversed), common humanity, isolation (reversed), mindfulness and over-identification (reversed).

healthy volunteers [11] = assay: Phase 1 Challenging Experiences Questionnaire (CEQ); assay type: in vivo, human; conditions: 6.5 hours post dosing
Excerpt: Seven Challenging Experiences Questionnaire (CEQ) factors (grief, fear, death, insanity, isolation, physical distress, and paranoia) provide a phenomenological profile of challenging aspects of experiences with R(−)-MDMA.

male C57BL/6J mice = assay: Mouse head twitch response (HTR); assay type: in vivo; conditions: 3 mg/kg IP, 30 min, vs vehicle control group
Procedure: Mouse Head Twitch (HTR) is a side-to-side rotational head movement in rodents that is widely employed as a behavioral measure of 5-HT2A receptor activation (Halberstadt and Geyer 2013). […] Animals with head mounted magnets were dosed intraperitoneally and immediately tested for HTR for 30 min using an automated magnetometer detection system (Halberstadt and Geyer 2013).

[12] = plasma analyte after oral 125 mg R(−)-MDMA, Day 9
[13] = plasma analyte after single oral 75 mg R(−)-MDMA, Day 1
[14] = plasma analyte after single oral 125 mg R(−)-MDMA, Day 1
[15] = plasma analyte after single oral 175 mg R(−)-MDMA, Day 1
[16] = plasma analyte after single oral 225 mg R(−)-MDMA, Day 1

T1 sequence (P28223 whole entry): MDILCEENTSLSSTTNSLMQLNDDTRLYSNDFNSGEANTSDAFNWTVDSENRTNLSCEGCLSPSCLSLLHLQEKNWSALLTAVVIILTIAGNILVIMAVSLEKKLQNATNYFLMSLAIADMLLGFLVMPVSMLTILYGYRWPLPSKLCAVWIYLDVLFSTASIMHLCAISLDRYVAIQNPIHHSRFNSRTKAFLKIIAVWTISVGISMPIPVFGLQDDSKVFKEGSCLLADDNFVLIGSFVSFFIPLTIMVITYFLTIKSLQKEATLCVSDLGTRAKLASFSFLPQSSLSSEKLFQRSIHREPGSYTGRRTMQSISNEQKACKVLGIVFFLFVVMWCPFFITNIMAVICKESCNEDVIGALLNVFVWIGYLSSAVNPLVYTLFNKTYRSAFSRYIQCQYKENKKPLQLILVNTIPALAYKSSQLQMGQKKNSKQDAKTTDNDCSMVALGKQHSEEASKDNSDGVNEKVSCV

## CN[C@H](C)Cc1ccc2c(c1)OCO2 [R(−)-MDMA, R(−)-3,4-methylenedioxymethamphetamine]
Human 5-HT2A receptor; 5-HT2A receptors
  agonism in words: moderate potency partial agonism
Human 5-HT2A receptor; 5-HT2A, CHO-K1, IP accumulation
  EC50: 3.34 µM
Human 5-HT2A receptor; 5-HT2A, relative to α-Me-5-HT at its EC100
  Efficacy (% of a-Me-5-HT response): 69.3%
Healthy volunteers [1]
  MET LSmean scores in CE negative emotions, changes from baseline: dose-dependent manner
Healthy volunteers [2]; 225 mg dose group vs comparators of FIG. 11
  11D-ASC changed meaning of percepts: strongest
Healthy volunteers [2]; 75-225 mg oral
  11D-ASC response profile: psychedelic-like response
[3]; 0.0001 μM
  number of neurites per neuron: modest yet significant increases
[3]; 10 μM
  branchpoints per neuron: modest yet significant increases
  number of neurites per neuron: modest yet significant increases
  total neurite length per neuron: modest yet significant increases
Healthy volunteers [4]
  5D-ASC sub-components and total score: dose-dependent increase in all measured sub-components and in the total score
Healthy volunteers [5]; 225 mg vs placebo
  EBI, acute experience of emotional breakthroughs: significantly higher
Healthy volunteers [5]; 75-225 mg
  EBI, acute experience of emotional breakthroughs, dose response: dose-dependent increase
[6]; 125 mg fasted vs fed
  food effect: No food effect
[6]; 30 hours postdose
  mean plasma concentration at final PK assessments: remained above the lower limit of quantitation
[6]; [12]
  AUC0-t: 7229.6028 (1863.6711) h · ng/mL
  Cmax: 455.4850 (65.0461) ng/mL
  t1/2: 13.3444 (3.5309) hr
  Tmax: 2.758 (2.08, 4.02) hr
[6]; [13]
  AUC0-t: 3976.7452 (1350.4178) h · ng/mL
  Cmax: 275.8217 (90.7390) ng/mL
  t1/2: 9.2622 (2.5227) hr
  Tmax: 3.000 (2.02, 3.00) hr
[6]; [14]
  AUC0-t: 7135.8809 (1245.2963) h · ng/mL
  Cmax: 425.2550 (62.4569) ng/mL
  t1/2: 11.8615 (1.9947) hr
  Tmax: 3.517 (1.50, 4.02) hr
[6]; [15]
  AUC0-t: 10007.8882 (2324.8851) h · ng/mL
  Cmax: 617.3440 (158.9596) ng/mL
  t1/2: 12.2009 (1.4988) hr
  Tmax: 4.000 (3.00, 6.02) hr
[6]; [16]
  AUC0-t: 14453.1811 (3684.7488) h · ng/mL
  Cmax: 828.6450 (213.1377) ng/mL
  t1/2: 14.0772 (3.2340) hr
  Tmax: 5.000 (3.00, 6.02) hr
Healthy volunteers [7]; 75-225 mg oral
  SIRS dose response: strong dose response
Healthy volunteers [7]; all cohorts, beyond 8 hours postdose
  mean SIRS scores: ≤ 0.5
Healthy volunteers [7]; fasted state, each cohort, 1 to 2 hours postdose
  mean SIRS scores: small nominal increases from Baseline
Healthy volunteers [8]
  VAS scores for positive affect (happy, loving, openness, less loneliness): increased VAS scores compared to placebo
Healthy volunteers [9]; 75 mg
  reduction in the recognition of angry (threatening) faces: 13.2%
Healthy volunteers [9]; 125 mg
  reduction in the recognition of angry (threatening) faces: 12.3%
Healthy volunteers [9]; 175 mg
  reduction in the recognition of angry (threatening) faces: 8.8%
Healthy volunteers [9]; 225 mg
  misclassifications to happy faces, change from baseline (mean): +1.16
  reduction in the recognition of angry (threatening) faces: 12.4%
Healthy volunteers [10]; 225 mg group, 1 week of follow-up
  SCS self-kindness score, mean: 4.1
Healthy volunteers [10]; 225 mg group, before dosing
  SCS self-kindness score, mean at baseline: 3.9
Healthy volunteers [10]; higher doses, 1 week of follow-up
  self-compassion (self-kindness) scores: significantly increased
Healthy volunteers [11]
  CEQ changes from baseline: clear dose-dependent response with statistical significance at higher doses
Male C57BL/6J mice
  head twitch response (HTR): significantly increased
